Measured values published in PubChem BioAssay (NCI).
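Dose response: 5 concentrations. Exposure: 48 h. Format: 96-well plates. Endpoint: linear interpolation; highest concentration if not reached. Definition used: TGI = concentration required for complete inhibition of growth.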 Activity calls are given as the source filed them. Cut-off read from the data, not from the text of the source: active = GI50 below about 0.43 µM; inactive = the rest.

What was measured:
Test in all cases: inhibition of tumour cell growth, NCI panel, 48 h
HOP-92 NSCLC = system: HOP-92 NSCLC
NCI/ADR-RES ovarian = system: NCI/ADR-RES ovarian
A549 NSCLC = system: A549 NSCLC
OVCAR-5 ovarian = system: OVCAR-5 ovarian
786-0 renal = system: 786-0 renal
SN12C renal = system: SN12C renal
COLO 205 colon = system: COLO 205 colon
OVCAR-3 ovarian = system: OVCAR-3 ovarian
NCI-H460 lung = system: NCI-H460 lung
A498 renal = system: A498 renal
HCC-2998 colon = system: HCC-2998 colon
SNB-75 CNS = system: SNB-75 CNS
NCI-H522 lung = system: NCI-H522 lung
UACC-62 melanoma = system: UACC-62 melanoma
T-47D breast = system: T-47D breast
SK-MEL-28 melanoma = system: SK-MEL-28 melanoma
RPMI-8226 leukemia = system: RPMI-8226 leukemia
ACHN renal = system: ACHN renal
K-562 leukemia = system: K-562 leukemia
CCRF-CEM leukemia = system: CCRF-CEM leukemia
BT-549 breast = system: BT-549 breast
SNB-19 CNS = system: SNB-19 CNS
DU-145 prostate = system: DU-145 prostate
HL-60(TB) leukemia = system: HL-60(TB) leukemia
SW-620 colon = system: SW-620 colon
OVCAR-8 ovarian = system: OVCAR-8 ovarian
MDA-MB-231 breast = system: MDA-MB-231 breast
MALME-3M melanoma = system: MALME-3M melanoma
IGROV1 ovarian = system: IGROV1 ovarian
MCF7 breast = system: MCF7 breast
HOP-62 NSCLC = system: HOP-62 NSCLC
KM12 colon = system: KM12 colon
SF-539 CNS = system: SF-539 CNS
PC-3 prostate = system: PC-3 prostate
HCT-15 colon = system: HCT-15 colon
SK-MEL-5 melanoma = system: SK-MEL-5 melanoma
NCI-H226 lung = system: NCI-H226 lung
M14 melanoma = system: M14 melanoma
SK-MEL-2 melanoma = system: SK-MEL-2 melanoma
RXF 393 renal = system: RXF 393 renal
U251 CNS = system: U251 CNS
MOLT-4 leukemia = system: MOLT-4 leukemia
CAKI-1 renal = system: CAKI-1 renal
UO-31 renal = system: UO-31 renal
MDA-N = system: MDA-N
HCT-116 colon = system: HCT-116 colon
NCI-H23 lung = system: NCI-H23 lung
HT29 colon = system: HT29 colon
SR leukemia = system: SR leukemia
HS 578T breast = system: HS 578T breast
MDA-MB-435 = system: MDA-MB-435
SK-OV-3 ovarian = system: SK-OV-3 ovarian
OVCAR-4 ovarian = system: OVCAR-4 ovarian
SF-268 CNS = system: SF-268 CNS
LOX IMVI melanoma = system: LOX IMVI melanoma
EKVX NSCLC = system: EKVX NSCLC
SF-295 CNS = system: SF-295 CNS
UACC-257 melanoma = system: UACC-257 melanoma
TK-10 renal = system: TK-10 renal
KM20L2 colon = system: KM20L2 colon
M19-MEL melanoma = system: M19-MEL melanoma
DMS 273 small cell lung = system: DMS 273 small cell lung
DMS 114 small cell lung = system: DMS 114 small cell lung

## CC(=O)O[C@@H]1C(C2CCCCC2)C=[N+]([O-])O[C@@H]1OC1CCCC1(c1ccccc1)c1ccccc1 (some centres undefined)
HOP-92 NSCLC
  TGI: 23.1 µM
NCI/ADR-RES ovarian
  TGI: 29.3 µM
A549 NSCLC
  TGI: 28.5 µM
OVCAR-5 ovarian
  TGI: 30.7 µM
786-0 renal
  TGI: 16.8 µM
SN12C renal
  TGI: 21.2 µM
COLO 205 colon
  TGI: 17.7 µM
OVCAR-3 ovarian
  TGI: 10.3 µM
NCI-H460 lung
  TGI: 30 µM
A498 renal
  TGI: 17.1 µM
HCC-2998 colon
  TGI: 26 µM
SNB-75 CNS
  TGI: 17.6 µM
NCI-H522 lung
  TGI: 4.1 µM
UACC-62 melanoma
  TGI: 19.4 µM
T-47D breast
  TGI: 10.1 µM
SK-MEL-28 melanoma
  TGI: 5.84 µM
RPMI-8226 leukemia
  TGI: 7.91 µM
ACHN renal
  TGI: 4.84 µM
K-562 leukemia
  TGI: > 40.2 µM
CCRF-CEM leukemia
  TGI: 7.49 µM
BT-549 breast
  TGI: 24.8 µM
SNB-19 CNS
  TGI: 30.5 µM
DU-145 prostate
  TGI: 25.3 µM
HL-60(TB) leukemia
  TGI: 3.4 µM
SW-620 colon
  TGI: 4.63 µM
OVCAR-8 ovarian
  TGI: 4.22 µM
MDA-MB-231 breast
  TGI: 27.1 µM
MALME-3M melanoma
  TGI: 9.05 µM
IGROV1 ovarian
  TGI: 8.83 µM
MCF7 breast
  TGI: 12 µM
HOP-62 NSCLC
  TGI: 29.3 µM
KM12 colon
  TGI: 22.9 µM
SF-539 CNS
  TGI: 14.2 µM
PC-3 prostate
  TGI: 23 µM
HCT-15 colon
  TGI: 4.21 µM
SK-MEL-5 melanoma
  TGI: 28 µM
NCI-H226 lung
  TGI: 32.1 µM
M14 melanoma
  TGI: 12.1 µM
SK-MEL-2 melanoma
  TGI: 27.8 µM
RXF 393 renal
  TGI: 6.82 µM
U251 CNS
  TGI: 26.1 µM
MOLT-4 leukemia
  TGI: > 27.6 µM
CAKI-1 renal
  TGI: 10.4 µM
UO-31 renal
  TGI: 20.4 µM
MDA-N
  TGI: 12.2 µM
HCT-116 colon
  TGI: 15.5 µM
NCI-H23 lung
  TGI: 26.2 µM
HT29 colon
  TGI: 5.65 µM
SR leukemia
  TGI: > 22.8 µM
HS 578T breast
  TGI: 27.8 µM
MDA-MB-435
  TGI: 9.04 µM
SK-OV-3 ovarian
  TGI: 29.1 µM
OVCAR-4 ovarian
  TGI: 21.1 µM
SF-268 CNS
  TGI: 17.6 µM
LOX IMVI melanoma
  TGI: 3.48 µM
EKVX NSCLC
  TGI: 30.2 µM
SF-295 CNS
  TGI: 27.4 µM
UACC-257 melanoma
  TGI: 36.5 µM
TK-10 renal
  TGI: 28.3 µM

## COc1ccccc1C=NC12CC3CC(CC(C3)C1)C2
HOP-92 NSCLC
  TGI: > 100 µM
A549 NSCLC
  TGI: > 100 µM
OVCAR-5 ovarian
  TGI: > 100 µM
786-0 renal
  TGI: > 100 µM
SN12C renal
  TGI: > 100 µM
COLO 205 colon
  TGI: > 100 µM
OVCAR-3 ovarian
  TGI: > 100 µM
NCI-H460 lung
  TGI: > 100 µM
A498 renal
  TGI: > 100 µM
KM20L2 colon
  TGI: > 100 µM
HCC-2998 colon
  TGI: > 100 µM
SNB-75 CNS
  TGI: > 100 µM
NCI-H522 lung
  TGI: > 100 µM
UACC-62 melanoma
  TGI: > 100 µM
SK-MEL-28 melanoma
  TGI: > 100 µM
RPMI-8226 leukemia
  TGI: > 100 µM
ACHN renal
  TGI: > 100 µM
K-562 leukemia
  TGI: > 100 µM
CCRF-CEM leukemia
  TGI: > 100 µM
M19-MEL melanoma
  TGI: > 100 µM
SNB-19 CNS
  TGI: > 100 µM
HL-60(TB) leukemia
  TGI: > 100 µM
SW-620 colon
  TGI: > 100 µM
OVCAR-8 ovarian
  TGI: > 100 µM
MALME-3M melanoma
  TGI: > 100 µM
HOP-62 NSCLC
  TGI: > 100 µM
KM12 colon
  TGI: > 100 µM
SF-539 CNS
  TGI: > 100 µM
DMS 273 small cell lung
  TGI: > 100 µM
HCT-15 colon
  TGI: > 100 µM
SK-MEL-5 melanoma
  TGI: > 100 µM
DMS 114 small cell lung
  TGI: > 10 µM
NCI-H226 lung
  TGI: > 10 µM
M14 melanoma
  TGI: > 100 µM
SK-MEL-2 melanoma
  TGI: > 100 µM
RXF 393 renal
  TGI: > 100 µM
U251 CNS
  TGI: > 100 µM
MOLT-4 leukemia
  TGI: > 100 µM
CAKI-1 renal
  TGI: > 100 µM
UO-31 renal
  TGI: > 100 µM
HCT-116 colon
  TGI: > 10 µM
NCI-H23 lung
  TGI: > 100 µM
HT29 colon
  TGI: > 100 µM
SR leukemia
  TGI: > 100 µM
SK-OV-3 ovarian
  TGI: > 100 µM
OVCAR-4 ovarian
  TGI: > 100 µM
SF-268 CNS
  TGI: > 100 µM
LOX IMVI melanoma
  TGI: > 100 µM
EKVX NSCLC
  TGI: > 100 µM
SF-295 CNS
  TGI: > 100 µM
UACC-257 melanoma
  TGI: > 100 µM
TK-10 renal
  TGI: > 100 µM

## CCCC(=O)OCC(COC(=O)CCC)OC(=O)CCC
HOP-92 NSCLC
  TGI: > 100 µM
NCI/ADR-RES ovarian
  TGI: 88.6 µM
  outcome: inactive
A549 NSCLC
  TGI: > 100 µM
  outcome: inactive
OVCAR-5 ovarian
  TGI: > 100 µM
786-0 renal
  TGI: > 100 µM
  outcome: inactive
SN12C renal
  TGI: > 100 µM
  outcome: inactive
COLO 205 colon
  TGI: > 100 µM
  outcome: inactive
OVCAR-3 ovarian
  TGI: > 100 µM
NCI-H460 lung
  TGI: > 100 µM
  outcome: inactive
A498 renal
  TGI: > 100 µM
  outcome: inactive
HCC-2998 colon
  TGI: > 100 µM
  outcome: inactive
SNB-75 CNS
  TGI: > 100 µM
  outcome: inactive
NCI-H522 lung
  TGI: > 100 µM
UACC-62 melanoma
  TGI: > 100 µM
T-47D breast
  TGI: > 100 µM
SK-MEL-28 melanoma
  TGI: > 100 µM
  outcome: inactive
RPMI-8226 leukemia
  TGI: > 100 µM
  outcome: inactive
ACHN renal
  TGI: > 100 µM
  outcome: inactive
K-562 leukemia
  TGI: > 100 µM
  outcome: inactive
CCRF-CEM leukemia
  TGI: > 100 µM
  outcome: inactive
BT-549 breast
  TGI: > 100 µM
SNB-19 CNS
  TGI: > 100 µM
  outcome: inactive
DU-145 prostate
  TGI: > 100 µM
  outcome: inactive
HL-60(TB) leukemia
  TGI: 90.7 µM
  outcome: inactive
SW-620 colon
  TGI: > 100 µM
  outcome: inactive
OVCAR-8 ovarian
  TGI: > 100 µM
  outcome: inactive
MDA-MB-231 breast
  TGI: > 100 µM
  outcome: inactive
MALME-3M melanoma
  TGI: > 100 µM
  outcome: inactive
IGROV1 ovarian
  TGI: > 100 µM
MCF7 breast
  TGI: > 100 µM
  outcome: inactive
HOP-62 NSCLC
  TGI: > 100 µM
  outcome: inactive
KM12 colon
  TGI: > 100 µM
  outcome: inactive
SF-539 CNS
  TGI: > 100 µM
  outcome: inactive
PC-3 prostate
  TGI: > 100 µM
  outcome: inactive
HCT-15 colon
  TGI: > 100 µM
  outcome: inactive
SK-MEL-5 melanoma
  TGI: > 100 µM
  outcome: inactive
NCI-H226 lung
  TGI: > 100 µM
  outcome: inactive
M14 melanoma
  TGI: > 100 µM
  outcome: inactive
SK-MEL-2 melanoma
  TGI: > 100 µM
  outcome: inactive
RXF 393 renal
  TGI: > 100 µM
U251 CNS
  TGI: > 100 µM
  outcome: inactive
MOLT-4 leukemia
  TGI: > 100 µM
  outcome: inactive
CAKI-1 renal
  TGI: > 100 µM
  outcome: inactive
UO-31 renal
  TGI: > 100 µM
  outcome: inactive
MDA-N
  TGI: > 100 µM
  outcome: inactive
HCT-116 colon
  TGI: > 100 µM
  outcome: inactive
NCI-H23 lung
  TGI: > 100 µM
  outcome: inactive
HT29 colon
  TGI: > 100 µM
  outcome: inactive
SR leukemia
  outcome: inactive
HS 578T breast
  TGI: > 100 µM
  outcome: inactive
MDA-MB-435
  TGI: > 100 µM
  outcome: inactive
SK-OV-3 ovarian
  TGI: > 100 µM
  outcome: inactive
OVCAR-4 ovarian
  TGI: > 100 µM
  outcome: inactive
SF-268 CNS
  TGI: > 100 µM
  outcome: inactive
LOX IMVI melanoma
  TGI: > 100 µM
  outcome: inactive
EKVX NSCLC
  TGI: > 100 µM
  outcome: inactive
SF-295 CNS
  TGI: > 100 µM
  outcome: inactive
UACC-257 melanoma
  TGI: > 100 µM
  outcome: inactive
TK-10 renal
  TGI: > 100 µM
  outcome: inactive
